# Reference: patent publication US8658777B2, “Activated protease indicator” (The University of Tokyo, priority 2007, dated 2014)
# *1 amine or outer side, *2 acyl side, *3 side chain or, on linkers, in order; H or OH if unused. Where a SMILES comes first, the peptide text is derived from it. Bridges are numbered along the chain shown (N, C = ends). Roman numbers before positions name the chains, in order. [ ]: non-standard residue; d: D form. The star is where a group is joined. Actinocin(9to1) = Cc1c2oc3c(C)ccc(C(=O)[*:1])c3nc-2c(C(=O)[*:2])c(N)c1=O; NMeV = CN[C@H](C(=O)O)C(C)C; Cbz = O=C(OCc1ccccc1)*; Sar = CNCC(=O)O; CH2F = FC*
# What was measured:
# caspase-3 [1] = experiment: Real-time in vitro analysis of caspase-3 activity in HeLa cells expressing cyclic Fluc; assay type: cell-based
# Method: [FIG. 9] Real-time in vitro analysis of caspase-3 activity. Forty eight hours after HeLa cells transfected with pcFluc-DEVD were treated with different concentrations of STS and then the bioluminescence intensities were measured every 5 minutes. The indicated time represents the time after the addition of each agent.
# [FIG. 10] Results of the measurement with actinomycin D (ActD) in the same manner as in FIG. 9. Real-time in vitro analysis of capsase-3 activity. Forty eight hours after HeLa cells transfected with pcFluc-DEVD were treated with different concentrations of actinomycin D (ActD) and then the bioluminescence intensities were measured every 5 minutes. The indicated time represents the time after the addition of each agent.
# pcFluc-DEVD was transfected in the HeLa cells in a 10-cm Petri dish for 24 hours. The cells were scraped off and divided in five 3-cm Petri dishes, for culturing for 24 hours. The culture medium was replaced with the Hank's balanced salt solution (Gibco) containing 500 μM D-luciferin and 5% FBS. After the five 3-cm Petri dishes were mounted on a photon counter (KRONOS, ATTO, Tokyo, Japan), the cells were stimulated with STS or actinomycin D (Act D, Sigma). The luminescence intensity in each of the Petri dishes was assayed for a cumulative time period of 45 seconds at an interval of 5 minutes.
# It is known that the time required for caspase-3 activation in response to extracellular stimuli varies with the type of chemical compounds and its concentration. In order to decide upon a screening time, it is crucial to know when the activity of caspase-3 gives a maximum response after stimulation with such apoptotic chemical regents. […] First, the cyclic Fluc indicator was transiently expressed in HeLa cells; the luminescence intensity upon stimulation with STS at various concentrations was monitored every five minutes in a time course (FIG. 9). […] The rate of increase in the luminescence intensity depended on the STS concentration. […] The decrease in the luminescence signal intensity indicates attenuation of active luciferase by proteolysis in the HeLa cells.
# caspase-3 [2] = experiment: In vitro assay of firefly luciferase in COS-7 cells transfected with pcFluc-DEVD; assay type: cell-based
# Method: [FIG. 5] Quantitative analysis of the Fluc activity with STS and Z-VAD-FMK. After transfection of COS-7 cells with pcFluc-DEVD for 48 hours, the cells were treated with 100 μM Z-VAD-FMK or vehicle (0.1% DMSO) for an hour and then stimulated with various concentrations of STS for two hours. A relative luminescence unit (RLU) was defined as follows: the luminescence intensity from the right side (LumR) was divided by that from the left side (LumL), as RLU (%)=LumR/LumL.
# (§1) pcFluc-DEVD and pRL-TK were transfected in the COS-7 cells and the HeLa cells for 48 hours. These cells were treated with STS or a caspase inhibitor Z-VAD-FMK (Sigma) to assay the luciferase activity according to the report (Ozawa, T. et al. (2001) Anal. Chem. 73, 2516-21; Kanno, A. et al. (2006) Anal. Chem. 78, 556-60). The assay time period of Fluc and Renilla reniformis luciferase (Rluc) was 20 seconds. The luminescence from Fluc (LF) was normalized to the luminescence from Rluc (LR), and the resulting value was defined as relative luminescence unit (RLU; RLU=LF/LR). All the assays were done in various wells in a culture plate triplicately, using a luminometer of MiniLuraat LB9506 (Berthold GmbH & Co. KG, Wildbad, Germany). The results are shown as the mean ratio of the RLU value to the RLU value of cells treated with a solvent (0.1% DMSO), together with the standard deviations.
# In the Example, continuously, it was examined whether the activity of the cyclic Fluc was restored after stimulation with STS. COS-7 cells transfected with pcFluc-DEVD were stimulated with STS or a caspase inhibitor Z-VAD-FMK, or with both STS and Z-VAD-FMK. The cells were harvested and their lysates were mixed with a Fluc substrate, D-luciferin. […] The luminescence signals in the presence of Z-VAD-FMK were smaller than the signals that originated from the cells in the absence of STS and Z-VAD-FMK.
# caspase-3 [3] = experiment: Fluc activity in caspase-3-deficient MCF-7 cells transfected with pcFluc-DEVD with or without pCaspase-3; assay type: cell-based
# Method: Analysis of the Flue activity in the caspase-3-deficient MCF-7 cells. MCF-7 cells were transfected with only pcFluc-DEVD (left) or with both pcFluc-DEVD and pCaspase-3 (right). The cells were incubated for 48 hours and the luminescence intensities were evaluated at the indicated times after stimulation with 100 nM STS. A relative luminescence unit (RLU) was defined as follows: the luminescence intensity from the right side (LumR) was divided by that from the left side (LumL), as RLU (%)=LumR/LumL.
# caspase-3 [4] = experiment: In vivo imaging of caspase-3 activity in living mice implanted with HeLa cells expressing cyclic Fluc; design: species or system BALB/c-nude mouse
# Excerpt: [FIG. 11] In vivo luminescence assay of mice carrying transiently transfected HeLa cells. The mice were subcutaneously implanted with HeLa cells expressing cyclic Fluc (right side) and full-length Fluc (left side). Images of the mice were taken at the indicated times after intraperitoneal injection of STS. A representative of three mice is shown.
# [FIG. 12] Time-dependent changes in the photon count from the implanted site in FIG. 11. The relative luminescence unit (RLU) is shown on the longitudinal axis, where RLU=LumR/LumL provided that luminescence intensity from the right side (LumR) is divided with the luminescence intensity from the left side (LumL), as shown in (A). A relative luminescence unit (RLU) was defined as follows: the luminescence intensity from the right side (LumR) was divided by that from the left side (LumL), as RLU (%)=LumR/LumL.
# pX8luc or pcFluc-DEVD was transfected in HeLa cells for 48 hours. The cells were harvested and suspended in a phosphate buffered saline (PBS), from which 1.0×10^6 cells were transplanted in two different dorsal positions of a BALB/c-nude mouse (female, five-week-old, body weight of about 17 to 20 g). After the cell transplantation, STS dissolved in DMSO was intraperitoneally injected. Immediately thereafter, a PBS buffer containing D-luciferin (600 mg/kg body weight) was intraperitoneally injected, to assay the luminescence from the mouse, using a CCD camera (IVIS200 system, Xenogen, Alameda, Calif.). Photons emitted from the transplanted cells were counted and cumulatively recorded over one minute. Image analysis was done, using the software LIVING IMAGE (Xenogen). So as to quantitatively determine the assayed luminescence, a region of interest was extracted from the cell-transplanted regions, to evaluate the luminescence intensity (photon·second^−1·cm^−2). […]
# To quantitatively evaluate the effect of STS on caspase-3 activity, a relative luminescence unit (RLU) was defined as follows; the luminescence intensity from the right side (LumR) was divided by that from the left side (LumL), as RLU (%)=LumR/LumL. […]
# caspase-3 [5] = experiment: In vitro assay of firefly luciferase in HeLa cells transfected with pcFluc-DEVD; assay type: cell-based
# Method: [FIG. 7] Quantitative analysis of the Flue activity with STS. After transfection of HeLa cells with pcFluc-DEVD for 48 hours, the cells were treated with various concentrations of STS for two hours. A relative luminescence unit (RLU) was defined as follows: the luminescence intensity from the right side (LumR) was divided by that from the left side (LumL), as RLU (%)=LumR/LumL.
# [FIG. 8] Quantitative analysis of the Flue activity with Z-VAD-FMK. The HeLa cells were transfected with pcFluc-DEVD for 48 hours, treated with different concentrations of Z-VAD-FMK or vehicle (0.1% DMSO), and stimulated with various concentrations of STS for two hours. A relative luminescence unit (RLU) was defined as follows: the luminescence intensity from the right side (LumR) was divided by that from the left side (LumL), as RLU (%)=LumR/LumL.
# as §1
# To show the feasibility of cyclic Fluc for characterizing apoptotic regents, the sensitivity of cyclic Fluc was examined, using HeLa cells. The cells were transfected with pcFluc-DEVD, for transient expression of chimera proteins, which were stimulated with different concentrations of STS for two hours. […]
# caspase-3 [6] = experiment: Western blot analysis of cyclic and linear Fluc in COS-7 cells transfected with pcFluc-DEVD; assay type: cell-based; settings: indicated concentrations of STS for two hours, Western blot (FIG. 4)
# Method: Western blot analysis of Fluc in the circular form and in the linear form. COS-7 cells transfected with pcFluc-DEVD for 48 hours were treated with the indicated concentrations of STS for two hours and harvested. The sample was electrophoresed, transferred on a nitrocellulose membrane and stained with a specific antibody.
# pcFluc-DEVD was transfected in the COS-7 cells for 48 hours. The cells were stimulated with staurosporine (STS; Sigma, St. Louise, Mo.) and then disrupted in a lysis buffer (1% SDS, 10% glycerol, 10% 2-mercaptoethanol, 0.001% Bromophenol Blue, 50 mM Tris/HCl, pH 6.8). The sample was electrophoresed with 10% SDS polyacrylamide gel, which was then transferred on a nitrocellulose membrane (Hybond-ECL, GE Healthcare, Buckinghamshire, England). Fluc was detected with a polyclonal anti-luciferase antibody (Promega); the immunoreactivity was evaluated, using horseradish peroxidase (HRP) conjugated to an anti-goat IgG antibody (Promega). The HRP activity was visualized, using an ECL advance Western blotting detection kit (GE Healthcare) with LAS-1000 plus image analyzer (Fuji Film Co., Tokyo, Japan).
# To assess whether the fusion protein expressed by pcFluc-DEVD produces cyclic Fluc by protein splicing, herein, pcFluc-DEVD was transfected in COS-7 cells and chimera proteins were transiently expressed for 48 hours. The spliced products were examined by Western blot (FIG. 3). […]
# [7] = STS 100 μg/kg of body weight i.p.
smiles,measurement,setting,value
"Cc1c2oc3c(C)ccc(C(=O)N[C@@H]4C(=O)N[C@H](C(C)C)C(=O)N5CCC[C@H]5C(=O)N(C)CC(=O)N(C)[C@@H](C(C)C)C(=O)O[C@@H]4C)c3nc-2c(C(=O)N[C@@H]2C(=O)N[C@H](C(C)C)C(=O)N3CCC[C@H]3C(=O)N(C)CC(=O)N(C)[C@@H](C(C)C)C(=O)O[C@@H]2C)c(N)c1=O [ActD, actinomycin D] (I: T[dV]P[Sar][NMeV] / II: T[dV]P[Sar][NMeV]; ester I:1-I:C, II:1-II:C; linker I:N-II:N via Actinocin(9to1))",time period over which the luminescence signal intensity increased,"caspase-3 [1]; ActD, then gradually decreased (FIG. 10)",25 to 120 min
"CN[C@@H]1C[C@H]2O[C@@](C)([C@@H]1OC)n1c3ccccc3c3c4c(c5c6ccccc6n2c5c31)C(=O)NC4 [STS, staurosporine]",luminescence signals,"caspase-3 [2]; COS-7 cells, various concentrations of STS for two hours (FIG. 5)",increased with increase in concentrations of the STS
same,luminescence from the cells,"caspase-3 [3]; MCF-7 cells cotransfected with pcFluc-DEVD and pCaspase-3, stimulation with STS",significantly increased
same,change in the bioluminescence intensity,"caspase-3 [3]; MCF-7 cells transfected with pcFluc-DEVD only, 1 μM STS for two hours",little change
same,"luminescence signal from the left side (HeLa cells expressing full-length Fluc, control)",caspase-3 [4]; [7],no significant change
same,luminescence signal intensity from the right side (implanted cyclic Fluc cells),caspase-3 [4]; [7],significant increase
same,maximum RLU ratio in comparison to the RLU before STS stimulation,"caspase-3 [4]; two hours after the intraperitoneal STS injection, RLU=LumR/LumL (FIG. 12)",300 to 400%
same,concentration range inducing an increase in the bioluminescence intensity,"caspase-3 [5]; HeLa cells, STS for two hours (FIG. 7)",10 to 1000 nM
same,time at which luminescence signals reach a maximum after stimulation,caspase-3 [1]; STS at various concentrations (FIG. 9),100 min
same,duration of initial slow increase in the luminescence signals,"caspase-3 [1]; STS at various concentrations, measured every five minutes (FIG. 9)",25 min
same,Formation of the linear form of Fluc,caspase-3 [6],dependent on the concentration of STS
COC(=O)C[C@H](NC(=O)[C@H](C)NC(=O)[C@@H](NC(=O)OCc1ccccc1)C(C)C)C(=O)CF [Z-VAD-FMK] (Cbz-Val-Ala-Asp(OMe)-CH2F),luminescence signal relative to signals from vehicle-treated cells,caspase-3 [2]; COS-7 cells treated with 100 μM Z-VAD-FMK (FIG. 5),50%
same,luminescence,"caspase-3 [2]; COS-7 cells, 100 μM Z-VAD-FMK, in the presence or absence of 1 μM STS",no increase in luminescence
same,basal caspase-3 activities,"caspase-3 [2]; COS-7 cells, 100 μM Z-VAD-FMK, no STS",completely inhibited
same,concentrations at which inhibitory effect on the cleavage of the cyclic Fluc was observed,caspase-3 [5]; HeLa cells stimulated with STS for two hours (FIG. 8),higher than 10 μM
same,cleavage of the cyclic Fluc,"caspase-3 [5]; HeLa cells, 100 μM Z-VAD-FMK, STS stimulation",completely suppressed
